# Key:
# panel of cancer cells = assay: In vitro screening of a panel of cancer cells; type: cell-based
# From the text: (§1) Understanding the clinical relevance of the cancer stemness markers and identifying their predictive response to the Compound of the Invention is used herein to assist clinical development by selecting patients that will most likely to derive clinical benefit. In some embodiments, the methods provided herein use one or more well-known cancer stemness marker(s), such as, for example, the expression of p-STAT3 and/or other cancer stem cell related proteins such as β-catenin and NANOG. All these proteins can be easily detected using any of a variety of art-recognized techniques. In some embodiments, the cancer sternness marker is detected with immunohistochemistry with antibodies. Using the archival tissue samples collected from the phase I trial with the Compound of the Invention, the patient response to the Compound of the Invention was analyzed based on biomarker status. […] A significant improvement in survival was detected for patients with nuclear β-Catenin localization compared with patients having β-catenin localized to the cell membrane, HR=0.043, p value <0.001. As further evidence, in an in vitro study screening a panel of cancer cells, the cell lines with nuclear β-Catenin show a lower IC50 for the Compound of the Invention. […] Thus, STAT3 activation is involved in nuclear β-catenin regulation. […]
# β-catenin = β-catenin protein levels in cancer cell lines; type: cell-based; conditions: in vitro within cancer cell lines
# From the text: as §1
# colorectal cancer (CRC) = assay: Survival of treated CRC patients by biomarker status or exposure; type: in vivo, human
# From the text: FIG. 6A depicts the relationship between Progression Free Survival (PFS) and exposure of a Compound of the Invention in colorectal cancer (CRC) patients. […] FIG. 6B depicts the overall survival (OS) in evaluable CRC patients. OS of evaluable CRC patients treated with a Compound of the Invention (defined as ≥4 weeks of Compound of the Invention, 80% compliance) compared with historical controls [Cetuximab for the treatment of colorectal cancer, 2007, N. Engl. J. Med. 357 2040-2048]. FIG. 6C depicts PFS in evaluable CRC patients. PFS of evaluable CRC patients treated with a Compound of the Invention (defined as ≥4 weeks of Compound of the Invention, 80% compliance) compared historical controls (Open-Label Phase III Trial of Panitumumab Plus Best Supportive Care Compared with Best Supportive Care Alone in Patients with Chemotherapy-Refractory Metastatic Colorectal Cancer, 2007, J. Clin. Onc. 25: 1658-1665].
# Understanding the clinical relevance of the cancer stemness markers and identifying their predictive response to the Compound of the Invention is used herein to assist clinical development by selecting patients that will most likely to derive clinical benefit. In some embodiments, the methods provided herein use one or more well-known cancer stemness marker(s), such as, for example, the expression of p-STAT3 and/or other cancer stem cell related proteins such as β-catenin and NANOG. All these proteins can be easily detected using any of a variety of art-recognized techniques. In some embodiments, the cancer sternness marker is detected with immunohistochemistry with antibodies. Using the archival tissue samples collected from the phase I trial with the Compound of the Invention, the patient response to the Compound of the Invention was analyzed based on biomarker status. […] A significant improvement in survival was detected for patients with nuclear β-Catenin localization compared with patients having β-catenin localized to the cell membrane, HR=0.043, p value <0.001. As further evidence, in an in vitro study screening a panel of cancer cells, the cell lines with nuclear β-Catenin show a lower IC50 for the Compound of the Invention. […] Thus, STAT3 activation is involved in nuclear β-catenin regulation. In addition, β-catenin status is a biomarker for predicting responsiveness of CRC patients to the Compound of the Invention.
# CRC patient's archival tumor tissue samples were analyzed through immunohistochemistry (IHC) using labeled antibodies against phosphorylated STAT3 (p-STAT3). […] For instance, 40% of the patients with high p-STAT3 levels before treatment survived longer than 100 weeks whereas only 10% of those with low or no p-STAT3 levels before treatment survived beyond 100 weeks. This further confirms that the Compound of the Invention downregulates that STAT3 pathway, and that the STAT3 pathway is implicated in colorectal cancers.
# CRC patient's archival tumor tissue samples were analyzed through immunohistochemistry (IHC) using labeled antibodies against β-catenin. […] For instance, close to 40% of the patients with high nuclear β-catenin levels before treatment survived longer than 100 weeks whereas none of those with high levels of membranous β-catenin survived beyond 25 weeks. This further confirms that the Compound of the Invention disrupts or somehow modulates the β-catenin function, and that the β-catenin pathway is implicated in colorectal cancers.
smiles,measurement,setting,value
"CC(=O)c1cc2c(o1)C(=O)c1ccccc1C2=O [Compound 1, 2-acetylnaphtho[2,3-b]furan-4,9-dione]",IC50 in cell lines with nuclear β-Catenin,panel of cancer cells,lower IC50
same,β-catenin protein levels,β-catenin,reduced
same,patients surviving beyond 25 weeks,colorectal cancer (CRC); CRC patients (N=13) with high levels of membranous β-catenin,none
same,patients surviving longer than 100 weeks,colorectal cancer (CRC); CRC patients (N=13) with high nuclear β-catenin levels before treatment,~40%
same,patients surviving longer than 100 weeks,colorectal cancer (CRC); CRC patients (N=13) with high p-STAT3 levels before treatment,40%
same,patients surviving beyond 100 weeks,colorectal cancer (CRC); CRC patients (N=13) with low or no p-STAT3 levels before treatment,10%
same,"Progression Free Survival (PFS), plasma concentrations above 2.0 uM for greater than 4 hours versus not reaching that exposure","colorectal cancer (CRC); CRC patients, FIG. 6A",statistically significant difference
same,"survival, high level of p-STAT3 or NANOG versus low or negative levels","colorectal cancer (CRC); CRC patients, phase I archival tissue",trend of increased survival
same,"survival HR, nuclear β-Catenin localization versus β-catenin localized to the cell membrane","colorectal cancer (CRC); CRC patients, phase I archival tissue, p value <0.001",0.043
